Series [1] has as its target recombinant human tissue plasminogen activator (Homo sapiens, UniProt P00750). Kind of series: Inactivation rate of recombinant human tissue plasminogen activator. The settings on record: pH 7.5, Table IX; pH 7.5, 25° C; [I] 3.5-5.0 μM; read-out: kobs/[I]. The format is biochemical. In a few lines:
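Incubation method: enzyme mixed with inhibitor in Me2SO (8–12% v/v) in 0.1M Hepes, 0.5M NaCl, pH 7.5; aliquots withdrawn over time for residual activity with ZArg-SBzl (0.07 mM) plus 4,4'-dithiodipyridine (0.33 mM). kobs taken from ln(vt/vo) versus time plots.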

For series [2], the target named is T1, human thrombin (Homo sapiens, UniProt P00734).
T1 construct: human thrombin
In words: Inactivation rate of human thrombin. Type of series: biochemical. The conditions noted are these: Table VIII; pH 7.5, 25° C; [I] 1.2-54 μM; read-out: kobs/[I]. In a few lines:
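Incubation method: enzyme (0.01-2.3 μM) mixed with inhibitor in 0.1M Hepes, 0.01M CaCl2, pH 7.5, 8% Me2SO, 25° C; residual activity sampled over time with peptide thioester or 4-nitroanilide substrates. kobs from ln(vt/vo) vs time plots.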

Series [3] has as its target human lung tryptase. In words: Inactivation rate of human lung tryptase. The format is biochemical. The conditions noted are these: Table IX; pH 7.5, 25° C; [I] 0.42-0.47 μM. In outline: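 Incubation method in 0.1M Hepes, 0.5M NaCl, pH 7.5, 8% Me2SO, 25° C; inhibitor added to enzyme, aliquots withdrawn over time for residual activity. Substrate ZArg-SBzl (0.07 mM) with 4,4'-dithiodipyridine (0.33 mM). kobs from ln(vt/vo) vs time plots.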

Series [4] addresses human skin tryptase. In words: Inhibition of human skin tryptase. Type of series: biochemical. The settings on record: Table IX; for kobs/[I]: pH 7.5, 25° C, [I] 0.34-0.39 μM. As for the experimental part:
(§1) Inactivation rates of serine proteases by substituted isocoumarins were measured by the incubation method. An aliquot of inhibitor (25 or 50 μl) in Me2 SO was added to a buffered enzyme solution (0.01-2.3 μM) to initiate the inactivation. Aliquots (50 μl) were withdrawn at various intervals and the residual enzymatic activity was measured. Me2 SO concentration in the reaction mixture was 8-12% (v/v). 0.1 Hepes, 0.01M CaCl2, pH 7.5 buffer was utilized for trypsin and coagulation enzymes. 0.1M Hepes, 0.5M NaCl, pH 7.5 was utilized for other serine proteases. The inhibitor concentrations are shown in all the tables. Peptide thioesters or peptide nitroanilides with appropriate sequence were used as substrates for various serine proteases. All peptide thioester hydrolysis rates were measured with assay mixtures containing 4,4'-dithiodipyridine (ε324 =19800M^-1 cm^-1; Grasetti & Murray, Arch. Biochem. Biophys. 119, pp 41-49 (1967)). Peptide 4-nitroanilide nitroanilide hydrolysis was measured at 410 nm (ε410 =8800M^-1 cm^-1; Erlanger et al., Arch. Biochem. Biophys. 95, pp 271-278 (1961)). First order inactivation rate constant (kobs) were obtained from plots of ln (vt /vo) vs time, and the correlation coefficients were greater than 0.98.
(§2) ^a Inhibition rates were measured in 0.1M Hepes, 0.01M CaCl2, pH
7.5 buffer for human plasmin; 25 mM Phosphate, 0.5M NaCl, 1 mM EDTA, pH
7.5 buffer for rat skin tryptase and 0.1M Hepes, 0.5M NaCl, pH 7.5 for
human lung tryptase, human skin tryptase and rt-PA. All enzymes were
assayed with ZArg-SBzl (0.07 mM) in the presence of 4,4dithiodipyridine
(0.33 mM). Reaction mixtures contained 8% Me2 SO and assays were […]

The target of series [5] is T2, bovine thrombin (Bos taurus, UniProt P00735).
T2 construct: bovine thrombin
Kind of series: Inactivation rate of bovine thrombin. Type of series: biochemical. The conditions noted are these: Table VIII; pH 7.5, 25° C; [I] 1.2-54 μM; read-out: kobs/[I]. In a few lines:
(§3)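 Incubation method: isocoumarin inhibitor in Me2SO added to enzyme (0.01-2.3 μM) in 0.1M Hepes, 0.01M CaCl2, pH 7.5, 8-12% Me2SO, 25° C; aliquots withdrawn over time for residual activity against peptide thioester or 4-nitroanilide substrates. kobs from ln(vt/vo) vs time.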

In series [6] the target is T3, human factor XIIa (Homo sapiens, UniProt P00748).
T3 construct: human factor XIIa
T3 sequence (P00748 373-615 limits assumed): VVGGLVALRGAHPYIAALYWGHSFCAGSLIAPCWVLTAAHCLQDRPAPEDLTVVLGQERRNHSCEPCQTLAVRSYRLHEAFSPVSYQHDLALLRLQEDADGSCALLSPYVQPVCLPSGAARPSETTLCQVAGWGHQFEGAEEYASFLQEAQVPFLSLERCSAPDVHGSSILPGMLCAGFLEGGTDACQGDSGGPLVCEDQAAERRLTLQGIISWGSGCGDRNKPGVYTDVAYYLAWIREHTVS
T3 sequence (P00748 20-372 partner limits assumed): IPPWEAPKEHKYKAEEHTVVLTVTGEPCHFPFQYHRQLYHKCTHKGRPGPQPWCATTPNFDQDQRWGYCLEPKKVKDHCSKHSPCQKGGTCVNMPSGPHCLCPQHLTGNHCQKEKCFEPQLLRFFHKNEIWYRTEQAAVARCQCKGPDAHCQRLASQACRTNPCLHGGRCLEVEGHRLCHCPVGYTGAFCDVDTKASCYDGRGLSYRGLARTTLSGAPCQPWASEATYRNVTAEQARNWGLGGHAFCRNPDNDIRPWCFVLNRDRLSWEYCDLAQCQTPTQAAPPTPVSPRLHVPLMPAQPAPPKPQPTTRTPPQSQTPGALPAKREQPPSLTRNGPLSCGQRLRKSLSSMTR
In words: Inactivation rate of human factor XIIa. The settings on record: Table VIII; pH 7.5, 25° C; [I] 3.6-4.9 μM; read-out: kobs/[I]. The format is biochemical. In outline: as §3

Series [7] has as its target T4, human factor Xa (Homo sapiens, UniProt P00742).
T4 construct: human factor Xa
Kind of series: Inactivation rate of human factor Xa. Type of series: biochemical. The conditions noted are these: Table VIII; pH 7.5, 25° C; [I] 3.6-44 μM; read-out: kobs/[I]. The method, then: as §1
^a Conditions were as 0.1M Hepes, 0.01M CaCl2, pH 7.5 and 8-12%
Me2 SO and 25° C. Rate constants were measured by incubation
method unless otherwise noted. An aliquot of inhibitor was added to an
enzyme solution and aliquots removed with time and assayed for remaining
enzymatic activity. Firstorder rate constants, kobs were obtained
from the plots of ln(vt /vo) versus time.
as §2
7.5 buffer, 8% Me2 SO and at 25° C.

The target in series [8] is T5, rat skin tryptase (Rattus norvegicus, UniProt P27435).
T5 construct: from tissue; host or cells: rat skin
T5 sequence (P27435 29-273): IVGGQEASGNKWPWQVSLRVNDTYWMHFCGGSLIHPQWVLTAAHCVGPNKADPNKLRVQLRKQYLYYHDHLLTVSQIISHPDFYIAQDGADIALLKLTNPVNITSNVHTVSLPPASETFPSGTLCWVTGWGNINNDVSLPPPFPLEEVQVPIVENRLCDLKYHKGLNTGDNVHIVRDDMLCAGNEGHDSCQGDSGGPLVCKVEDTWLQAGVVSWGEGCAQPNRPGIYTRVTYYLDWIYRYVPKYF
Kind of series: Inactivation rate of rat skin tryptase. Type of series: biochemical. The conditions noted are these: pH 7.5, Table IX; pH 7.5, 25° C; [I] 0.42-0.51 μM; read-out: kobs/[I]. In outline: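 Rat skin tryptase incubated with isocoumarin inhibitor in 25 mM phosphate, 0.5 M NaCl, 1 mM EDTA, pH 7.5, 8-9% Me2SO, 25 °C; aliquots withdrawn over time for residual activity on ZArg-SBzl (0.07 mM) with 4,4'-dithiodipyridine (0.33 mM). First-order kobs from ln(vt/vo) versus time.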

The target of series [9] is T6, bovine trypsin (Bos taurus, UniProt P00760).
T6 sequence (P00760 24-246): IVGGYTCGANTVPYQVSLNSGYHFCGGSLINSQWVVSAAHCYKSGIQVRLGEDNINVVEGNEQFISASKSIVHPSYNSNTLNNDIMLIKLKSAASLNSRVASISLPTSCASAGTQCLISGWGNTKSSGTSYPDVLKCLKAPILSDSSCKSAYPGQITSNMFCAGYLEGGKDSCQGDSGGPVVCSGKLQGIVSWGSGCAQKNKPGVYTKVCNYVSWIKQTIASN
In words: Inactivation rate of bovine trypsin. Type of series: biochemical. The settings on record: Table VIII; pH 7.5, 25° C; [I] 1.1-4.6 μM; read-out: kobs/[I]. In outline: as §3

Series [10] has as its target T7, human leukocyte elastase (HLE) (Homo sapiens, UniProt P08246).
T7 construct: from tissue; host or cells: human leukocytes (from the name)
T7 sequence (P08246 30-267): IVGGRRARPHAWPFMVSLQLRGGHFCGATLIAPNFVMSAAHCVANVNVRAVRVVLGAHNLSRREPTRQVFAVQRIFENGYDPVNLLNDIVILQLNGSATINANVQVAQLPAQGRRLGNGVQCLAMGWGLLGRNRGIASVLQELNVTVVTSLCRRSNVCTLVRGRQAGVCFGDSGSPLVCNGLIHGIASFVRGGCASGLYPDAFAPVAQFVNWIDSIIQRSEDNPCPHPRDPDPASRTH
Kind of series: Inactivation of human leukocyte elastase (HLE). The format is biochemical. The conditions noted are these: Table X; pH 7.5, 25° C; [I] 2.1-42 μM; read-out: kobs/[I].

Series [11] concerns the target T8, cathepsin G (Homo sapiens, UniProt P08311).
T8 construct: from tissue; host or cells: human leukocytes
T8 sequence (P08311 21-255): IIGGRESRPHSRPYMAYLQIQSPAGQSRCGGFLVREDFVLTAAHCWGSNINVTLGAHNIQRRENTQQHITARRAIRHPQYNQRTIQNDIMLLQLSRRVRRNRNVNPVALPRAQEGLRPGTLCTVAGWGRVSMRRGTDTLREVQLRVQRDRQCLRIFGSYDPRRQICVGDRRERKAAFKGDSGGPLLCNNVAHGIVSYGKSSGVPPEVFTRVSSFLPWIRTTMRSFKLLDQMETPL
Kind of series: Inactivation of cathepsin G. The format is biochemical. The conditions noted are these: Table X; pH 7.5, 25° C; [I] 33-46 μM; read-out: kobs/[I].

The nature of series [12]: Spontaneous hydrolysis in Hepes buffer. The format is physicochemical. The settings on record: 0.1 Hepes, 0.5M NaCl, pH 7.5, 9% Me2SO, 25° C. The method, then: ^a Conditions were 0.1 Hepes, 0.5M NaCl, pH 7.5 and 9% Me2 SO at
25° C. Spontaneous hydrolysis rates were measured
spectrophotometrically by monitoring the decrease in absorbance due to th
isocoumarin ring system (wavelength 335-380 nm) using the firstorder rate

Series [13] concerns the target T9, porcine pancreatic elastase (PPE) (Sus scrofa, UniProt P00772).
T9 construct: from tissue; host or cells: porcine pancreas (from the name)
Kind of series: Inactivation of porcine pancreatic elastase (PPE). Type of series: biochemical. The conditions noted are these: Table X; after 20 min incubation.
Description: Inactivation rates of serine proteases by substituted isocoumarins were measured by the incubation method. An aliquot of inhibitor (25 or 50 μl) in Me2 SO was added to a buffered enzyme solution (0.01-2.3 μM) to initiate the inactivation. Aliquots (50 μl) were withdrawn at various intervals and the residual enzymatic activity was measured. Me2 SO concentration in the reaction mixture was 8-12% (v/v). 0.1 Hepes, 0.01M CaCl2, pH 7.5 buffer was utilized for trypsin and coagulation enzymes. 0.1M Hepes, 0.5M NaCl, pH 7.5 was utilized for other serine proteases. […] Peptide thioesters or peptide nitroanilides with appropriate sequence were used as substrates for various serine proteases. All peptide thioester hydrolysis rates were measured with assay mixtures containing 4,4'-dithiodipyridine (ε324 =19800M^-1 cm^-1 ; Grasetti & Murray, Arch. Biochem. Biophys. 119, pp 41-49 (1967)). Peptide 4-nitroanilide nitroanilide hydrolysis was measured at 410 nm (ε410 =8800M^-1 cm^-1 ; Erlanger et al., Arch. Biochem. Biophys. 95, pp 271-278 (1961)). First order inactivation rate constant (kobs) were obtained from plots of ln (vt /vo) vs time, and the correlation coefficients were greater than 0.98.
^a Inactivation rates were measured at 0.1M Hepes, 0.5 NaCl, pH 7.5,
8-12% Me2 SO and 25° C. by incubation method.
^a Inhibition rates were measured in 0.1M Hepes, 0.05M NaCl, pH 7.5
buffer, 8-9% Me2 SO and at 25° C.
^a Inhibition constants were in 0.1M Hepes, 0.5M NaCl, pH 7.5 buffer,
8-9% Me2 SO and at 25° C.
^a Inhibition rates were measured in 0.1M Hepes, 0.5M NaCl, 2.5%
Me2 SO, pH 7,5 and at 25° C.
^a Inhibition was measured in 0.1M Hepes, 0.5M NaCl, pH 7.5 buffer,
5-10% Me2 SO and at 25° C. Suc--Val--Pro--Phe--NA (0.48 mM)
was used as the substrate for chymotrypsin and cat G.
^a Inhibition rates were measured in 0.1M Hepes, 0.5M NaCl, pH 7.5

Series [14] deals with chymotrypsin (Bos taurus, UniProt P00766). In words: Inactivation of chymotrypsin. Type of series: biochemical, bovine. The settings on record: Table X; pH 7.5, 25° C; [I] 0.9-43 μM; read-out: kobs/[I].
In series [15] the target is T10, human plasmin (Homo sapiens, UniProt P00747).
T10 construct: human plasmin; from tissue; host or cells: human plasma
T10 sequence (P00747 581-810 limits assumed): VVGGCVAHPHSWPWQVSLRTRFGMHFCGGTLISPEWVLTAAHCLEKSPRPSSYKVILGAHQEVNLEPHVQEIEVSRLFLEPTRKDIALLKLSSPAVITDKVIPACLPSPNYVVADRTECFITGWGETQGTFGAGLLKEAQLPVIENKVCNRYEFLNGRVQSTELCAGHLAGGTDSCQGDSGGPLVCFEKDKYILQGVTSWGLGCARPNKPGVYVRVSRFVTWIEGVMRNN
T10 sequence (P00747 97-580 partner limits assumed): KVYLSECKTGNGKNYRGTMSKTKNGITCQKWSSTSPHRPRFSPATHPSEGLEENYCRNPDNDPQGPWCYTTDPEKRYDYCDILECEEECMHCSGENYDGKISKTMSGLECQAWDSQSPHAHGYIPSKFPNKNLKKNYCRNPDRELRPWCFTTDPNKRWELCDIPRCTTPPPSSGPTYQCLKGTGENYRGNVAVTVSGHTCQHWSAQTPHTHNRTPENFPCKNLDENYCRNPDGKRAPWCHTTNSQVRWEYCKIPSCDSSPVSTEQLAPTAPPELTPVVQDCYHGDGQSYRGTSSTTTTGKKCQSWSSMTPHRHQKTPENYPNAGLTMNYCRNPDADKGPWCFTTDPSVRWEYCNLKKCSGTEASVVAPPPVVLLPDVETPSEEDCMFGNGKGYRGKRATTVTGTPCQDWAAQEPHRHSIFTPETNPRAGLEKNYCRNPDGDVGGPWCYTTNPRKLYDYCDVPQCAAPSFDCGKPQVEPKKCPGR
In words: Inactivation rate of human plasmin. The format is biochemical. The conditions noted are these: Table IX; 0.01M CaCl2, pH 7.5, 25° C; [I] 8.3-41 μM; read-out: kobs/[I].

Structures are written as SMILES.

Chain of recombinant human tissue plasminogen activator (P00750 36-562): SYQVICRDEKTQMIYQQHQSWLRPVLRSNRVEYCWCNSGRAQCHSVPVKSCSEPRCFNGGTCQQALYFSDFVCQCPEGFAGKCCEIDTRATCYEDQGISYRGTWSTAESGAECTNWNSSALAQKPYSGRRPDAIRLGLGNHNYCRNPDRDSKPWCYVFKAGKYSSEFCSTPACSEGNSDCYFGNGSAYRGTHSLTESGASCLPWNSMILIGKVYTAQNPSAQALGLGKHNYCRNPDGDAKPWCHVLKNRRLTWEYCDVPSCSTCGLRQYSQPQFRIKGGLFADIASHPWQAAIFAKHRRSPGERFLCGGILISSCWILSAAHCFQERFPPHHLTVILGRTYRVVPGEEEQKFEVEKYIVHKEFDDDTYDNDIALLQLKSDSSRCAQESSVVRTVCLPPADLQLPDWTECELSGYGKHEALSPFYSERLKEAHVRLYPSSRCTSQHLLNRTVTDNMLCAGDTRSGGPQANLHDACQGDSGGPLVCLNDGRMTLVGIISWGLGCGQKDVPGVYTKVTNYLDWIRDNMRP
T4 sequence (P00742 235-488 limits assumed): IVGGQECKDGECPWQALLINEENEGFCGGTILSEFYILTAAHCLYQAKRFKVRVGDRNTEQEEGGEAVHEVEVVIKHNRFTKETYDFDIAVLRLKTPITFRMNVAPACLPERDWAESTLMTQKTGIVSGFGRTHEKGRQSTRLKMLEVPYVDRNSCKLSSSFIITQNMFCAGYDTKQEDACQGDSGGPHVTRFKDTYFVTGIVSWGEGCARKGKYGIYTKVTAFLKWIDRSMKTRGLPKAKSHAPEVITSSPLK
T4 sequence (P00742 41-179 partner limits assumed): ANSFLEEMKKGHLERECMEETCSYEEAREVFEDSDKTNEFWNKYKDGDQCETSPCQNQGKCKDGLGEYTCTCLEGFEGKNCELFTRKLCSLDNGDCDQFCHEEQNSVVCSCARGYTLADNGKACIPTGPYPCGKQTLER
T9 sequence (P00772 27-266): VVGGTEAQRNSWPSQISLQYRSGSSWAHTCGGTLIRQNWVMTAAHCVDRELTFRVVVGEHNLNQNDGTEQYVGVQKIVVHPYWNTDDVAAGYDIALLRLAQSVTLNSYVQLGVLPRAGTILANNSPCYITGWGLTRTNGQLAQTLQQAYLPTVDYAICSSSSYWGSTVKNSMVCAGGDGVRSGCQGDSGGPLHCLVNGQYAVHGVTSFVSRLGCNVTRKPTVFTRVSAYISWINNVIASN

Take `N=C(N)SCCOc1oc(=O)c2cc(NC(=O)[C@H](N)Cc3ccccc3)ccc2c1Cl` [D-Phe--NH-CiTEtOIC, 7-(D-phenylalanylamino)-4-chloro-3-(2-isothiureidoethoxy)isocoumarin]: the kinact/KI in series [1] was 15000 M⁻¹ s⁻¹; in series [2], 3070 M⁻¹ s⁻¹; in series [5] it was 4240 M⁻¹ s⁻¹; in [6] it was 82000 M⁻¹ s⁻¹; in [7] it was 3070 M⁻¹ s⁻¹; in [8] it was 360000 M⁻¹ s⁻¹. Moreover, the entries for the “kobs/[I]” value in [3] and in series [4] were 60,000 M^-1 s^-1 and 62,000 M^-1 s^-1, respectively.

On to `N=C(N)SCCCOc1oc(=O)c2cc(NC(=O)NCc3ccccc3)ccc2c1Cl` [PhCH2 NHCONH-CiTPrOIC, 7-(benzylcarbamoylamino)-4-chloro-3-(3-isothiureidopropoxy)isocoumarin], for which the kinact/KI came to 18000 M⁻¹ s⁻¹ in series [1]; 700 M⁻¹ s⁻¹ in [2]; 51000 M⁻¹ s⁻¹ in [9]; 250 M⁻¹ s⁻¹ in series [10]; 50 M⁻¹ s⁻¹ in series [11]; 420 M⁻¹ s⁻¹ in [5]. Besides, the kinact/KI in series [14] amounted to 13400 M⁻¹ s⁻¹; in [15], 5120 M⁻¹ s⁻¹; in [8], 270000 M⁻¹ s⁻¹. Also, the “kobs/[I]” value in [3] is listed as 190,000 M^-1 s^-1. The percentage of inhibition in series [4] (not time dependent, at 0.34-5.0 μM) is given as 68%; in series [13], 9%. The “t1/2 for spontaneous hydrolysis” value in series [12] amounted to 2.47 h.

As for `N=C(N)SCCCOc1oc(=O)c2cc(NC(=O)Nc3ccccc3)ccc2c1Cl` [PhNHCONH-CiTPrOIC, 7-(phenylcarbamoylamino)-4-chloro-3-(3-isothiureidopropoxy)isocoumarin], the kinact/KI amounted to 19000 M⁻¹ s⁻¹ in [1]; 1840 M⁻¹ s⁻¹ in series [2]; 63000 M⁻¹ s⁻¹ in [9]; 970 M⁻¹ s⁻¹ in series [5]; 7720 M⁻¹ s⁻¹ in [6]; 50 M⁻¹ s⁻¹ in series [7]. In [8], the kinact/KI was 250000 M⁻¹ s⁻¹. The “kobs/[I]” value is recorded as 140,000 M^-1 s^-1 in series [3] and 38,000 M^-1 s^-1 in series [4]. In addition, in [12], the “t1/2 for spontaneous hydrolysis” value is 2.47 h.

Source of the values: patent publication US5324648A, “Substituted isocoumarins as serine protease inhibitors and anti-inflammatory agents” (Georgia Tech Research Corporation, priority 1992, dated 1994).
